Measurements taken from US9962334B2, “Ophthalmic device having therapeutic agent delivery capability and method of forming same” (Novartis AG, priority 2008, dated 2018).
Marks after values point to notes of the source that are not given here.

How the values were obtained:
[1] = cited from earlier work
[2] = cited from earlier work; remark: listed apart in the source
[3] = tested on: LEC migration and proliferation; test: In vitro inhibition of LEC migration and proliferation; assay type: cell-based; conditions: in vitro studies

| SMILES | Exp. Log P/Hydrophobicity [1] | log P (PC log P) [1] | further results |
| --- | --- | --- | --- |
| NC(=O)Cc1cccc(C(=O)c2ccccc2)c1N [Nepafenac] | 2.11* | 2.1 | – |
| O=C(O)Cc1ccccc1Nc1c(Cl)cccc1Cl [Diclofenac Sodium] | – | 1.1 | – |
| O=C(c1ccccc1)c1ccc2n1CCC2C(=O)O (stereo not drawn) [Ketorolac] | 2.1 | – | Water Solubility [2]: 25 mg/mL |
| COc1cc2c(c(OC)c1OC)-c1ccc(OC)c(=O)cc1[C@@H](NC(C)=O)CC2 [Colchicine] | 1.3 | 1.3 | concentration as low as which LEC migration and proliferation was inhibited [3]: 0.0005 mg/mL |
| Nc1c(CC(=O)O)cccc1C(=O)c1ccc(Br)cc1 [Bromfenac] | – | – | Water Solubility [2]: 0.0126 mg/mL |
| O=C(O)Cc1ccccc1Nc1c(Cl)cccc1Cl [Diclofenac] | – | – | soluble in water up to [2]: up to 50 mg/mL |
| CO[C@@]12[C@H](COC(N)=O)C3=C(C(=O)C(C)=C(N)C3=O)N1C[C@@H]1N[C@@H]12 [Mitomycin-C] | – | – | concentration as low as which LEC migration and proliferation was inhibited [3]: 0.0005 mg/mL |
| O=C1O[C@H]([C@@H](O)CO)C(O)=C1O [Ascorbic Acid] | −0.5 | – | – |
